Test results from patent US20250057928A1, “VACCINE COMPOSITION FOR INDUCING ANTI-IL-23 ANTIBODY” (OSAKA UNIVERSITY, priority 2021, published 2025).
Where no end group is shown, it is not given here.

Legend:
splenocytes = assay: ELISPOT assay for T cell activation (IFN-γ, IL-4) in splenocytes of administered mice; assay type: cell-based, mouse; details: splenocytes 7 weeks after first administration, stimulated with 10 μg/mL AJP001 alone or 10 μg/mL AJP001 conjugated peptide
Description: In addition, ELISPOT assay was performed to evaluate T cell activation. AJP001 conjugated peptide (SEQ ID NO: 2) or physiological saline was administered three times at two-week intervals to BALB/c mice (female, 6-week-old, N=3-4), and the spleen was collected 7 weeks after the first administration. The collected spleen was triturated using a syringe barrel and a cell strainer. This was washed with and suspended in HBSS (−), erythrocytes were removed using ACK Buffer (Thermo fisher scientific), and splenocytes were isolated. Using Mouse IFN-γ ELISpot assay kit and Mouse IL-4 ELISpot assay kit (R&D systems), the cells were prepared to 2.5×10^6 cells/mL with 10% FBS/1% penicillin/streptomycin/4 ng/mL rmIL-2-containing RPMI1640 medium (culture medium), and seeded at 100 μL/well on the 96-well plate of which each capture antibody was immobilized. Splenocytes were stimulated by adding (1) medium alone, (2) 10 μg/mL T cell antigen AJP001 (SEQ ID NO: 38) alone, (3) 10 μg/mL AJP001 conjugated peptide (SEQ ID NO: 2), or (4) 100 ng/mL PMA/ionomycin (PMA/IM, Sigma) to each well. Stimulation was performed for 2 days in a […]. Then, a detection antibody was added and, after washing, a colorimetric reaction was performed. The stained cells were measured with a microscope. The number of IFN-γ and IL-4 positive cells was calculated as the number of cells per 10^6 cell number (SFC/10^6 cells). In FIG. 2, “*” means significant (P<0.05).
In addition, AJP001 conjugated peptide (SEQ ID NO: 6) or physiological saline was administered three times at two-week intervals to BALB/c mouse (female, 6-week-old, N=3-4), and the spleen was collected 7 weeks after the first administration. The collected spleen was subjected to ELISPOT assay using Mouse IFN-γ ELISpot assay kit and Mouse IL-4 ELISpot assay kit (R&D systems).

epitope peptide = assay: Antibody titer (GMT) of serum of mice administered AJP001 conjugated peptide, ELISA; assay type: in vivo, mouse; details: BALB/c mice, no adjuvant; for antibody titer (GMT) over time: 1 mg/body intradermal 3 times at two-week intervals, blood every 2 weeks until 8 weeks
Description: AJP001 conjugated peptide having one of the B cell epitope sequences of SEQ ID NOs: 1-5 was dissolved in physiological saline and intradermally administered twice to BALB/c mice (female, 6-week-old, N=5-6) at 0.5 mg/body at 2-week intervals. Blood was collected before administration and 5 weeks after the initial administration, and the antibody titer against each AJP001 conjugated peptide and the binding ability to recombinant mouse IL-23 protein (rmIL-23) were measured by the ELISA method. Specifically, a 96-well plate immobilized with an epitope peptide dissolved at 10 μg/mL in carbonate buffer was blocked with 5% skim milk/PBS, and then serum serially diluted with 5% skim milk/PBS was added, and the mixture was left standing at 4° C. overnight. After washing the wells with PBS-T, HRP-labeled anti-mouse IgG antibody (GE Healthcare) diluted with 5% skim milk/PBS was added and the mixture was shaken at room temperature for 3 hr. After washing the wells with PBS-T, TMB solution (SIGMA) was added, the wells were allowed to stand for 30 min in the dark, the reaction was stopped by adding 0.5M H2SO4, and the absorbance at 450 nm was measured using a plate reader. The serum dilution rate that gave 1/2 (OD=1.75) of the maximum absorbance was defined as the antibody titer, and the geometric mean titer: GMT was calculated from the individual values. Binding to IL-23 protein was measured by the ELISA method in the same manner as the antibody titer, using rmIL-23 (Antibodies-online GmbH) as the solid-phased antigen and goat serum for blocking.
AJP001 conjugated peptide (SEQ ID NO: 2) was dissolved in physiological saline and intradermally administered to BALB/c mice (female, 6-week-old, N=6) at 1 mg/body 3 times at two-week intervals, and blood was collected every 2 weeks until 8 weeks. The antibody titer (GMT) of all the collected sera and the binding ability to rmIL-23 of the serum at the time point of 6 weeks were measured by the ELISA method (same method as in Example 1). The antibody titer and the binding of the induced antibody to rmIL-23 at each time point are shown in FIGS. 2 (a) and (b), respectively.
AJP001 conjugated peptide (SEQ ID NOs: 6-37) was dissolved in physiological saline, mixed with an equal amount of 2% Alhydrogel (invivogen), and this was intradermally administered to BALB/c mice (female, 6-week-old, N=5-6) at 0.5 mg/body 3 times at two-week intervals. Blood was collected before administration and at the time point of 6 weeks after initial administration, and the antibody titer (GMT) to each epitope sequence and binding ability to recombinant human IL-23 protein (rhIL-23) (Peprotech) were measured by the ELISA method (same method as in Example 1). The binding to rhIL-23 was evaluated by a binding ratio to normal serum by calculating the ratio of the absorbance of a well added with normal mouse serum to the absorbance of a well added with antiserum derived from a mouse administered with each AJP001 conjugated peptide (SEQ ID NOs: 6-37). In addition, the neutralization activity of mouse antiserum was evaluated using an action on IL-17 production in rhIL-23 stimulated mouse splenocyte as an index. The spleen of normal BALB/c mouse (female, 5-week-old, N=3) was triturated using a syringe barrel and a cell strainer and washed with and suspended in HBSS (−). Erythrocytes were then removed using ACK Buffer (Thermo fisher scientific), and splenocytes were isolated. The splenocytes were prepared to 2.5×10^6 cells/mL with 10% FBS/1% penicillin/streptomycin/4 ng/mL rmIL-2-containing RPMI1640 medium (culture medium), and seeded in a 96 well plate at 100 μl/well. The antiserum (final concentration 15-fold) of the mice administered with each AJP001 conjugated peptide and rhIL-23 (final concentration 10 ng/ml) were added to the culture medium, reacted at 37° C. for 2 hr, added at 100 μL/well to a 96-well plate seeded with splenocytes, and cultured for 3 days in a 37° C./5% CO2 incubator. […]

Substance | number of IFN-γ positive cells (splenocytes) | number of IL-4 positive cells (splenocytes) | antibody titer (epitope peptide; 0.5 mg/body intradermal twice at 2-week intervals, 5 weeks after initial administration) | antibody titer (GMT) over time (epitope peptide)
SEQ ID NO 2: AJP001-Ahx-B cell epitope peptide conjugate; epitope SSSQQWQR (mouse 152-159) (not fully specified (N-terminus); listed as Mus musculus) | increase | increase | significant increase | increased from the 2nd week and persisted until the 8th week
SEQ ID NO 6: AJP001-Ahx-B cell epitope peptide conjugate; epitope SPSQPWQR (human 151-158) (not fully specified (N-terminus); listed as Homo sapiens) | increase | increase | – | increased from the 2nd week and persisted until the 8th week
